# Assay results as given in patent US9567302B2, “Carbamate compounds and of making and using same” (Abide Therapeutics, Inc., priority 2012, dated 2017).
# Legend:
# Type in all cases: biochemical
# Parameters in all cases: from tissue
# FAAH = biological target: T1, FAAH (Mus musculus, UniProt O08914); assay: In vitro competitive ABPP, % inhibition at fixed concentration, FAAH
# T1 sequence (O08914 1-579): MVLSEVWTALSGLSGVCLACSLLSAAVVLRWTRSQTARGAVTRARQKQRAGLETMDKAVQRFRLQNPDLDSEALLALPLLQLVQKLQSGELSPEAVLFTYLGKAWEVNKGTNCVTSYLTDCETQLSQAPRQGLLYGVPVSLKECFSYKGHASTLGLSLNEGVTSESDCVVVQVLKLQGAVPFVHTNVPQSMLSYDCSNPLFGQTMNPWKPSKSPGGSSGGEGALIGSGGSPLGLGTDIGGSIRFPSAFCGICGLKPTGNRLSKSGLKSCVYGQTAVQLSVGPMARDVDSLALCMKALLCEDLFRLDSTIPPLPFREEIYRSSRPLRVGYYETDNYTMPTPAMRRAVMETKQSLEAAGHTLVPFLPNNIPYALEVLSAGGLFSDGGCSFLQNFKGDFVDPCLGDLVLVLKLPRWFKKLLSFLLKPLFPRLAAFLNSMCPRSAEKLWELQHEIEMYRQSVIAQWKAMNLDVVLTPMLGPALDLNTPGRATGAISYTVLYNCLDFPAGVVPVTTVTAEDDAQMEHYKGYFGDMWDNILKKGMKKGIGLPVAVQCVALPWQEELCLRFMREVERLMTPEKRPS
# Description: (§1) In Vitro Competitive Activity-Based Protein Profiling.
# (§2) Proteomes (mouse brain membrane fraction or cell lysates) (50 μL, 1.0 mg/ml total protein concentration) were preincubated with varying concentrations of inhibitors at 37° C. After 30 min, FP-Rh (1.0 μL, 50 μM in DMSO) was added and the mixture was incubated for another 30 min at 37° C. Reactions were quenched with SDS loading buffer (50 μL—4×) and run on SDS-PAGE. Following gel imaging, serine hydrolase activity was determined by measuring fluorescent intensity of gel bands corresponding to MAGL, ABHD6 and FAAH using ImageJ 1.43u software.
# MAGL = biological target: T2, MAGL (Mus musculus, UniProt O35678); assay: In vitro competitive ABPP, % inhibition at fixed concentration, MAGL
# T2 sequence (O35678 1-303): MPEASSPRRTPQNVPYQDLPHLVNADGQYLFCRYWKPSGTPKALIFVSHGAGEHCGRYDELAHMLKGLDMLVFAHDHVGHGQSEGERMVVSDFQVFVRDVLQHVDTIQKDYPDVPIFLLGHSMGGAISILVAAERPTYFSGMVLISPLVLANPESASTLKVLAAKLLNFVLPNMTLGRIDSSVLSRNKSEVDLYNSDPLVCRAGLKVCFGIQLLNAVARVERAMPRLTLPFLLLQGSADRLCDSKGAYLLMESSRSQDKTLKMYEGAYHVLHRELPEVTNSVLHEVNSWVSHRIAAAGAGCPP
# Description: as §1, §2
# ABHD6 = biological target: T3, ABHD6 (Mus musculus, UniProt Q8R2Y0); assay: In vitro competitive ABPP, % inhibition at fixed concentration, ABHD6
# T3 sequence (Q8R2Y0 1-336): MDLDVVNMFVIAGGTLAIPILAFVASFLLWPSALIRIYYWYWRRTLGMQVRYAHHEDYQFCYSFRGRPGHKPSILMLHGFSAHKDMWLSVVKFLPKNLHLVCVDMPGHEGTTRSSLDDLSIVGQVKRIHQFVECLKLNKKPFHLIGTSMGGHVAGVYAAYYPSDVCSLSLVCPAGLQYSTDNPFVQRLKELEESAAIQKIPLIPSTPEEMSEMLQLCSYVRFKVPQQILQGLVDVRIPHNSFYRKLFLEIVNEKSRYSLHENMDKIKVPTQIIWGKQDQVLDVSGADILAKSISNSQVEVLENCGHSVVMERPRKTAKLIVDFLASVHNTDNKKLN
# Description: as §1, §2
Structure (SMILES),inhibition at 1 µM (FAAH),inhibition at 1 µM (MAGL),inhibition at 1 µM (ABHD6)
"O=C(ON1C(=O)CCC1=O)N1CCN(C(c2ccc3c(c2)COC3)c2ccc3c(c2)COC3)CC1 [Example 157, 2,5-Dioxopyrrolidin-1-yl 4-[bis(1,3-dihydro-2-benzofuran-5-yl)methyl]piperazine-1-carboxylate]",< 25%,25 to 75%,25 to 75%
"O=C(ON1C(=O)CCC1=O)N1CCC(C(O)(c2ccc3c(c2)COC3)c2ccc3c(c2)COC3)CC1 [Example 158, 2,5-Dioxopyrrolidin-1-yl 4-[bis(1,3-dihydro-2-benzofuran-5-yl)(hydroxy)methyl]piperidine-1-carboxylate]",< 25%,25 to 75%,< 25%
"Cc1cc(-c2ccc(CN3CCN(C(=O)ON4C(=O)CCC4=O)CC3)c(C)c2)ccn1 [Example 159, 2,5-Dioxopyrrolidin-1-yl 4-{[2-methyl-4-(2-methylpyridin-4-yl)phenyl]methyl}piperazine-1-carboxylate]",< 25%,25 to 75%,25 to 75%
"O=C(ON1C(=O)CCC1=O)N1CCN(Cc2ccc(-c3cccc(F)c3)cc2F)CC1 [Example 162, 2,5-Dioxopyrrolidin-1-yl 4-{[2-fluoro-4-(3-fluorophenyl)phenyl]methyl}piperazine-1-carboxylate]",< 25%,> 75%,> 75%
"Cc1cccc(-c2ccc(CN3CCN(C(=O)ON4C(=O)CCC4=O)CC3)c(C)c2)c1 [Example 163, 2,5-Dioxopyrrolidin-1-yl 4-{[2-methyl-4-(3-methylphenyl)phenyl]methyl}piperazine-1-carboxylate]",< 25%,25 to 75%,25 to 75%
"O=C(ON1C(=O)CCC1=O)N1CCN(Cc2ccc(-c3ccccc3)cc2F)CC1 [Example 164, 2,5-Dioxopyrrolidin-1-yl 4-[(2-fluoro-4-phenylphenyl)methyl]piperazine-1-carboxylate]",< 25%,> 75%,> 75%
"Cc1cc(-c2ccc(CN3CCN(C(=O)ON4C(=O)CCC4=O)CC3)c(F)c2)ccn1 [Example 166, 2,5-Dioxopyrrolidin-1-yl 4-{[2-fluoro-4-(2-methylpyridin-4-yl)phenyl]methyl}piperazine-1-carboxylate]",< 25%,25 to 75%,> 75%
"COc1cc(-c2ccccc2)ccc1CN1CCN(C(=O)ON2C(=O)CCC2=O)CC1 [Example 167, 2,5-Dioxopyrrolidin-1-yl 4-[(2-methoxy-4-phenylphenyl)methyl]piperazine-1-carboxylate]",< 25%,> 75%,25 to 75%
"O=C(ON1C(=O)CCC1=O)N1CCN(Cc2ccc(-c3cccc(F)c3)cn2)CC1 [Example 168, 2,5-Dioxopyrrolidin-1-yl 4-{[5-(3-fluorophenyl)pyridin-2-yl]methyl}piperazine-1-carboxylate]",< 25%,25 to 75%,25 to 75%

# The remaining lines, values ahead:
inhibition at 1 µM (FAAH),inhibition at 1 µM (MAGL),inhibition at 1 µM (ABHD6),Structure (SMILES)
< 25%,25 to 75%,> 75%,"Cc1cccc(-c2ccc(CN3CCN(C(=O)ON4C(=O)CCC4=O)CC3)c(Oc3ccccc3)c2)c1 [Example 169, 2,5-Dioxopyrrolidin-1-yl 4-{[4-(3-methylphenyl)-2-phenoxyphenyl]methyl}piperazine-1-carboxylate]"
< 25%,25 to 75%,25 to 75%,"Cc1cc(-c2cccnc2C)ccc1CN1CCN(C(=O)ON2C(=O)CCC2=O)CC1 [Example 170, 2,5-Dioxopyrrolidin-1-yl 4-{[2-methyl-4-(2-methylpyridin-3-yl)phenyl]methyl}piperazine-1-carboxylate]"
< 25%,25 to 75%,25 to 75%,"Cc1cc(-c2ccncc2C)ccc1CN1CCN(C(=O)ON2C(=O)CCC2=O)CC1 [Example 171, 2,5-Dioxopyrrolidin-1-yl 4-{[2-methyl-4-(3-methylpyridin-4-yl)phenyl]methyl}piperazine-1-carboxylate]"
< 25%,25 to 75%,25 to 75%,"Cc1cc(-c2cccnc2)ccc1CN1CCN(C(=O)ON2C(=O)CCC2=O)CC1 [Example 172, 2,5-Dioxopyrrolidin-1-yl 4-{[2-methyl-4-(pyridin-3-yl)phenyl]methyl}piperazine-1-carboxylate]"
< 25%,25 to 75%,25 to 75%,"Cc1cccc(-c2ccc(CN3CCN(C(=O)ON4C(=O)CCC4=O)CC3)c(C)c2)n1 [Example 173, 2,5-Dioxopyrrolidin-1-yl 4-{[2-methyl-4-(6-methylpyridin-2-yl)phenyl]methyl}piperazine-1-carboxylate]"
< 25%,25 to 75%,25 to 75%,"Cc1ncccc1-c1ccc(CN2CCN(C(=O)ON3C(=O)CCC3=O)CC2)c(F)c1 [Example 174, 2,5-Dioxopyrrolidin-1-yl 4-{[2-fluoro-4-(2-methylpyridin-3-yl)phenyl]methyl}piperazine-1-carboxylate]"
< 25%,25 to 75%,25 to 75%,"Cc1cccc(-c2ccc(CN3CCN(C(=O)ON4C(=O)CCC4=O)CC3)c(F)c2)n1 [Example 175, 2,5-Dioxopyrrolidin-1-yl 4-{[2-fluoro-4-(6-methylpyridin-2-yl)phenyl]methyl}piperazine-1-carboxylate]"
< 25%,25 to 75%,25 to 75%,"Cc1cc(-c2ccc(CN3CCN(C(=O)ON4C(=O)CCC4=O)CC3)c(F)c2)cc(C)n1 [Example 176, 2,5-Dioxopyrrolidin-1-yl 4-{[4-(2,6-dimethylpyridin-4-yl)-2-fluorophenyl]methyl}piperazine-1-carboxylate]"
< 25%,25 to 75%,> 75%,"Cc1cnccc1-c1ccc(CN2CCN(C(=O)ON3C(=O)CCC3=O)CC2)c(F)c1 [Example 177, 2,5-Dioxopyrrolidin-1-yl 4-{[2-fluoro-4-(3-methylpyridin-4-yl)phenyl]methyl}piperazine-1-carboxylate]"
< 25%,25 to 75%,25 to 75%,"Cc1nc(CN2CCN(C(=O)ON3C(=O)CCC3=O)CC2)ccc1-c1ccccc1F [Example 178, 2,5-Dioxopyrrolidin-1-yl 4-{[5-(2-fluorophenyl)-6-methylpyridin-2-yl]methyl}piperazine-1-carboxylate]"
< 25%,25 to 75%,25 to 75%,"Cc1ccccc1-c1ccc(CN2CCN(C(=O)ON3C(=O)CCC3=O)CC2)nc1C [Example 179, 2,5-Dioxopyrrolidin-1-yl 4-{[6-methyl-5-(2-methylphenyl)pyridin-2-yl]methyl}piperazine-1-carboxylate]"
< 25%,> 75%,> 75%,"Cc1cccc(-c2ccc(CN3CCN(C(=O)ON4C(=O)CCC4=O)CC3)nc2C)c1 [Example 180, 2,5-Dioxopyrrolidin-1-yl 4-{[6-methyl-5-(3-methylphenyl)pyridin-2-yl]methyl}piperazine-1-carboxylate]"
< 25%,25 to 75%,< 25%,"Cc1nc(CN2CCN(C(=O)ON3C(=O)CCC3=O)CC2)ccc1-c1cccc(F)c1 [Example 181, 2,5-Dioxopyrrolidin-1-yl 4-{[5-(3-fluorophenyl)-6-methylpyridin-2-yl]methyl}piperazine-1-carboxylate]"
